From patent US5641793A, “Pyridine compounds which have useful pharmaceutical activity” (Zeneca Limited, priority 1994, dated 1997)

Tests used:
[1] = system: Human ETA or ETB receptors; test: Test A: inhibition of [125I]-Endothelin-1 binding to MEL cell membranes expressing recombinant receptor; settings: inhibition of 30 pM [125I]-Endothelin-1 binding; receptor sub-type (ETA or ETB) not given
Description: The endothelin receptor antagonist activity of compounds of formula I may be assessed in vitro by their ability to inhibit binding of [^125 I]-Endothelin-1 to its receptors. Human ETA or ETB receptors (sub-types of the endothelin receptor) were expressed in Mouse Erythroleukemic Cells (MEL cells) by using standard molecular techniques (for example, as described by Sambrook J., Fritsch E. F. & Maniatis T. (1989) Molecular Cloning: A Laboratory Manual, 2nd Edition, Cold Spring Harbor Press, U.S.A.). cDNA sequences encoding the human ETA and ETB receptor (Hosoda K. et al (1991), FEBS Lett., 287, 23-26 and Sakamoto A. et al, (1991), Biochem. Biophys Res. Comm., 178, 656-663) are subcloned into pBluescript vector followed by insertion into the MEL cell expression vector pEV as described by Needham et al (1992), Nuc. Acids Res., 20, 997-1003. […]
[^125 I]-Endothelin-1 binding to MEL cell membranes was measured in incubation buffer containing 50 mM Tris HCl, 1 mM CaCl2, 0.05% polyoxyethylenesorbitan monolaurate, 0.1% Bovine Serum Albumin (BSA), 0.02% sodium azide pH 7.4 at 30° C. after 180 minutes incubation. […] Nonspecific binding was measured in the presence of 100 nM unlabelled Endothelin-1. […] The filter discs were punched out and counted in a gamma counter. Compounds are tested in triplicate over a range of concentrations and IC50 (or pIC50) values calculated.

endothelin receptor = test: Test B: inhibition of the relaxant response to endothelin-1 in guinea-pig isolated taenia coli; settings: antagonism of endothelin-1 relaxation, initial test concentration 20 μM
Experimental: The endothelin receptor antagonist activity of compounds of formula I may be assessed in vitro in isolated tissues by their ability to inhibit the relaxant response to endothelin-1 in the guinea-pig isolated taenia coli. Guinea pigs of either sex and weight >250 g are killed by cervical dislocation and the caecum removed and placed in cold oxygenated Krebs solution. Strips of taenia coli are dissected out and approximately 4 cm lengths set up for isotonic recording in a 20 ml organ bath containing oxygenated Krebs solution at 32° C. After a […] equilibration period to allow the tissue to spontaneously develop an increased tone, a cumulative concentration-response curve (relaxation) is constructed to endothelin-1 (0.3-10 nM). The tissue is then washed for a period of at least 90 minutes before construction of a second concentration-response curve to endothelin-1 in the presence of the test compound. The test compound is added to the organ bath (at an initial concentration of 20 μM) at least 30 minutes before constructing the second concentration-response curve to endothelin-1. The endothelin-1 concentration ratio for each experiment is determined by comparing the most parallel portions of the control and drug treated concentration-response curves. From this a pA2 is calculated: pA2 =-log[molar drug concentration]+log[concentration ratio-1].

pIC50 in test A [1]: 6.5
Compound: Cc1cc(Br)cnc1NS(=O)(=O)c1cccc2c(N(C)C)cccc12 [Example 6, 5-(dimethylamino)-N-(5-bromo-3-methyl-2-pyridyl)-1-naphthalenesulphonamide]
pA2 in test B (endothelin receptor): 6.6
